The source of these data is patent publication US20250195510A1, “NOVEL METHODS” (priority 2022, published 2025).

Data set [1] relates to Hippocampal mRNA expression. Put plainly: Hippocampal mRNA (qRT-PCR) after acute restraint stress. The data set is classed as in vivo, mouse. To be noted: restraint stress 2 h + Luma 3 mg/kg IP; control 0, stressed −0.138. The procedure: Quantitative Real-Time PCR. […] Heavy phase-lock gel tubes enabled separation of phases following the addition of 400 μL chloroform to the sample and centrifugation at 12,000 rpm for 10 minutes at room temperature. RNA is extracted using Qiagen Rneasy kit (Qiagen, Hilden, Germany). For cDNA synthesis, 2 μg of total RNA is used (SuperScript IV Reverse Transcriptase; ThermoFisher Scientific, Waltham, MA). The purity and concentration of RNA is measured with a Nanodrop spectrophotometer; the optical density (OD) 260/280 and OD 260/230 are within 1.8-2.3. In the hippocampus, 4 key markers of pro- and anti-inflammatory cytokines and chemokines (Il1b: ID Mm00434228_m1, Tnfa: ID Mm00443258_m1, Il6: ID Mm00446190_m1, and Il10: ID Mm01288386_ml; ThermoFisher Scientific) are initially chosen for analysis (n=5-12 per group). […] Mm00840904_m1). […] All mRNAs are measured by qRT-PCR on ABI Prism 7900HT system using TaqMan Gene Expression Assays. […] The results are shown in Table 4B as relative change in mRNA levels for each cytokine gene (Il1b, Il6, Tnfa, Il10) normalized to the control group using the Dct method: Using similar procedures as described above, serum corticosterone levels and hippocampal Cldn5 mRNA expression are measured as well (corticosterone is measured using a commercial ELISA kit).

Data set [2] relates to patients with schizophrenia. In words: Phase 3 clinical trial in schizophrenia with acute exacerbation of psychosis. Particulars: 60 mg or 40 mg lumateperone tosylate once daily for 28 days vs placebo. Type of data set: in vivo, human. The protocol: A randomized, double-blind, placebo-controlled, phase 3 clinical trial was conducted with 450 patients with schizophrenia, aged 18 to 60 years, who were experiencing an acute exacerbation of psychosis. Patients were included if they were experiencing an acute exacerbation of psychosis, defined as a total score on the Brief Psychiatric Rating Scale of […] or higher, with a score of 4 or higher on 2 or more positive symptoms, and onset of the acute episode within 4 weeks of screening. Patients were required to have a score of 4 or higher, indicating moderate to severe disease severity, on the Clinical Global Impression-Severity of Illness (CGI-S) at screening and baseline. […]
The primary efficacy end point was mean change from baseline to day 28 in the Positive and Negative Syndrome Scale (PANSS) total score versus placebo. […] The PANSS subscale scores, social function, safety, and tolerability were also assessed. Primary and key secondary efficacy measures were assessed weekly. Safety was assessed by treatment-emergent adverse events (TEAEs), modified physical examinations, 12-lead electrocardiograms (ECGs), vital signs, and clinical laboratory tests (blood and urine samples for clinical laboratory analysis were collected from all subjects upon screening and on Days 1, 8, 28, and 33, following overnight fast).

For data set [3], the system named is Sprague-Dawley rats. In words: Open Field Test (OFT), locomotion. The data set is classed as in vivo, rat. The procedure: Behavioral Evaluation. All behavioral tests are performed in the morning with adult male Sprague-Dawley rats (n=9-11 per group for the experiments with LPS, and n=13-14 per group for the naïve rats).
Open Field Test (OFT). Rats are placed in an open field box (76.5×76.5×40 cm^3) under dim lighting and locomotor activity over a 10 minute period is measured using ANY-Maze Software (Stoelting Co., Wood Dale, IL).

Data set [4] relates to Sprague-Dawley rats. Put plainly: Female urine sniffing test (FUST), LPS-induced anhedonia. To be noted: LPS 1 mg/kg SC. The data set is classed as in vivo, rat. An excerpt:
All other reagents are obtained in the highest purity available from Sigma-Aldrich (St. Louis, MO) unless otherwise noted. […] Sigma-Aldrich, ref #0127: B8) diluted in 0.9% injectable saline while control group animals receive injections of all vehicles matching the experimental conditions. […] Behavioral Evaluation. […] Reward Sniffing Test (also known also as female urine sniffing test (FUST)): In this anhedonia-based assay, rats are brought to a well-ventilated testing room under dim lighting. A sterile cotton-tipped applicator is attached to one wall in the home cage for 1 hour to habituate rats to this new object. For the 2 phases of the 5 minute test, rats are first exposed to a new cotton tip dipped in sterile water as a control that is removed at the end of the 5 minutes; 45 minutes later, another cotton tip previously dipped into fresh rat urine collected from females of the same strain is attached to the cage wall. Male behavior is video recorded and latency to first sniff of the cotton tip and total time spent sniffing the cotton-tipped applicator are determined. In a pilot study, a dose response curve is conducted with varying doses of LPS to select an optimal dose for inducing an anhedonic response in rats. […] SC). […] Control rats are administered saline instead of LPS and vehicle instead of lumateperone. Anhedonia is assessed using FUST (female urine sniffing test) and measuring latency to sniff the reward combined with time spent sniffing the reward. Latency sniffing water is used as a control. The results are shown in the table below (time in seconds) with outliers removed using the MAD Method: […]

In the next data set the test system is Corticosterone. Put plainly: Serum corticosterone (ELISA) after acute restraint stress. The data set is classed as in vivo, mouse. To be noted: restraint stress 2 h + Luma 3 mg/kg IP; control 22.65, stressed 238.5. The procedure:
Restraint Stress Protocol.
Using similar procedures as described above, serum corticosterone levels and hippocampal Cldn5 mRNA expression are measured as well (corticosterone is measured using a commercial ELISA kit).

On to `CN1CCN2c3c(cccc31)[C@@H]1CN(CCCC(=O)c3ccc(F)cc3)CC[C@@H]12` [Lumateperone, 4-((6bR,10aS)-3-methyl-2,3,6b,9,10,10a-hexahydro-1H-pyrido[3′,4′: 4,5]pyrrolo[1,2,3-de]quinoxaline-8 (7H)-yl)-1-(4-fluorophenyl)-1-butanone], for which the “Hippocampal Cldn5 mRNA expression” value in data set [1] is 0.330. Besides, in data set [2], the “efficacy on symptoms of schizophrenia (PANSS total score, CGI-S)” value is “effective for improving the symptoms of schizophrenia”; the safety and tolerability result is “favorable safety profile”. The OFT locomotion in the data set with Sprague-Dawley rats [3] (naïve rats, Luma 1 mg/kg IP days 1 and 3, control 17.2) worked out at 32.8 m. Moreover, in the data set on Sprague-Dawley rats [3] (open field track length, rats, LPS 1 mg/kg SC + Luma 1 mg/kg IP, control 13.29, LPS + Vehicle 12.81), the “OFT locomotion (distance travelled)” value was determined as 12.27 meters. Besides, the “FUST Time sniffing reward” value with Sprague-Dawley rats [4] (Luma 1 mg/kg IP 24 h before and 24 h after LPS, control 16.99, LPS + Vehicle 11.11) turned out to be 17.38 s. In addition, in the data set with Sprague-Dawley rats [4] (Luma 1 mg/kg IP 24 h before and 24 h after LPS, control 28.00, LPS + Vehicle 164.2), the “FUST Latency sniffing reward” value came to 68.13 s. Besides, the “FUST Latency sniffing water” value in the data set with Sprague-Dawley rats [4] (control test, Luma 1 mg/kg IP before and after LPS, control 190.56, LPS + Vehicle 274.27) turned out to be 207.60 s. For the same compound, in the data set on Corticosterone, the “Serum concentration Corticosterone” value came to 167.3 ng/mL.
